In US20120029187A1, “HALOALKYLSULFONANILIDE DERIVATIVE” (Nissan Chemical Industries, Ltd., priority 2009, published 2012):

What was measured:
Assay type in all cases: in vivo
Italian ryegrass [1] = assay: Test Example 4: herbicidal effect in foliage treatment; settings: dose 3.2 g/a, three weeks after application
Outline: (§1)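 Seeds were spot-sown in boxes of sterilized diluvial soil and raised in a greenhouse (25 to 30° C) for 14 days before a single foliar application. Compounds were applied as emulsifiable concentrates diluted with water, at predetermined doses in g/a. Injury was graded three weeks post-spray.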

barnyardgrass [2] = assay: as above; settings: dose 3.2 g/a, three weeks after application
Outline: as §1

common ragweed [3] = assay: as above; settings: dose 3.2 g/a, three weeks after application
Outline: as §1

velvetleaf [4] = assay: as above; settings: dose 3.2 g/a, three weeks after application
Outline: as §1

redroot pigweed [5] = assay: as above; settings: dose 3.2 g/a, three weeks after application
Outline: as §1

common chickweed [6] = assay: as above; settings: dose 3.2 g/a, three weeks after application
Outline: as §1

water foxtail [7] = assay: as above; settings: dose 3.2 g/a, three weeks after application
Outline: as §1

common lambsquater [8] = assay: as above; settings: dose 3.2 g/a, three weeks after application
Outline: as §1

beadstraw = assay: as above; settings: dose 3.2 g/a, three weeks after application
Outline: as §1

giant foxtail [9] = assay: as above; settings: dose 3.2 g/a, three weeks after application
Outline: as §1

posumbu knotweed [10] = assay: as above; settings: dose 3.2 g/a, three weeks after application
Outline: as §1

large crabgrass [11] = assay: as above; settings: dose 3.2 g/a, three weeks after application
Outline: as §1

barnyardgrass [12] = assay: Test Example 1: herbicidal effects in preemergence treatment under submerged conditions; settings: dose 2.52 g/a
Outline: (§2)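 Alluvial soil was flooded to 4 cm, sown with barnyardgrass, bulrush and ducksalad, and planted with 2.5-leaf rice seedlings. On the seeding day, water-diluted emulsifiable concentrates were applied to the water surface at set doses (g/a). After three weeks in a 25 to 30° C. greenhouse, mortality was scored 0–5.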

bulrush [13] = assay: as above; settings: dose 2.52 g/a
Outline: as §2

ducksalad [14] = assay: as above; settings: dose 2.52 g/a
Outline: as §2

barnyardgrass [15] = assay: Test Example 2: herbicidal effects during the vegetation period under submerged conditions; settings: treatment during the vegetation period under submerged conditions; dose 2.52 g/a
Outline: (§3)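 Barnyardgrass, bulrush and ducksalad were co-sown in alluvial soil flooded to 4 cm and grown in a greenhouse at 25 to 30° C. At the 1- or 2-leaf stage, water-diluted emulsifiable concentrates went onto the water surface at set doses (g/a). Herbicidal effect was scored three weeks later on a graded scale.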

bulrush [16] = assay: as above; settings: treatment during the vegetation period under submerged conditions; dose 2.52 g/a
Outline: as §3

ducksalad [17] = assay: as above; settings: treatment during the vegetation period under submerged conditions; dose 2.52 g/a
Outline: as §3

Italian ryegrass [18] = assay: Test Example 3: herbicidal effects in soil treatment; settings: dose 3.2 g/a
Outline: (§4)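 Seeds were sown in sterilized diluvial soil and covered with about 1.5 cm of soil. Compounds, formulated as emulsifiable concentrates and diluted with water, were sprayed evenly over the soil surface at set doses in g/a. Herbicidal effect was scored on a rating scale three weeks later.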

barnyardgrass [19] = assay: as above; settings: dose 3.2 g/a
Outline: as §4

common ragweed [20] = assay: as above; settings: dose 3.2 g/a
Outline: as §4

velvetleaf [21] = assay: as above; settings: dose 3.2 g/a
Outline: as §4

redroot pigweed [22] = assay: as above; settings: dose 3.2 g/a
Outline: as §4

common chickweed [23] = assay: as above; settings: dose 3.2 g/a
Outline: as §4

water foxtail [24] = assay: as above; settings: dose 3.2 g/a
Outline: as §4

common lambsquater [25] = assay: as above; settings: dose 3.2 g/a
Outline: as §4

giant foxtail [26] = assay: as above; settings: dose 3.2 g/a
Outline: as §4

posumbu knotweed [27] = assay: as above; settings: dose 3.2 g/a
Outline: as §4

large crabgrass [28] = assay: as above; settings: dose 3.2 g/a
Outline: as §4

transplanted rice = assay: Test Example 1: preemergence treatment under submerged conditions, effect on crop; settings: dose 2.52 g/a
Outline: as §2

Row | SMILES | H: Italian ryegrass, herbicidal effect (Italian ryegrass [1]) | A: barnyardgrass, herbicidal effect (barnyardgrass [2]) | J: common ragweed, herbicidal effect (common ragweed [3]) | I: velvetleaf, herbicidal effect (velvetleaf [4]) | K: redroot pigweed, herbicidal effect (redroot pigweed [5]) | N: common chickweed, herbicidal effect (common chickweed [6]) | G: water foxtail, herbicidal effect (water foxtail [7]) | L: common lambsquater, herbicidal effect (common lambsquater [8]) | O: beadstraw, herbicidal effect (beadstraw) | E: giant foxtail, herbicidal effect (giant foxtail [9]) | M: posumbu knotweed, herbicidal effect (posumbu knotweed [10]) | D: large crabgrass, herbicidal effect (large crabgrass [11]) | A: barnyardgrass, herbicidal effect (evaluation scale 0-5) (barnyardgrass [12]) | B: bulrush, herbicidal effect (evaluation scale 0-5) (bulrush [13]) | C: ducksalad, herbicidal effect (evaluation scale 0-5) (ducksalad [14]) | A: barnyardgrass, herbicidal effect (evaluation scale 0-5) (barnyardgrass [15]) | B: bulrush, herbicidal effect (evaluation scale 0-5) (bulrush [16]) | C: ducksalad, herbicidal effect (evaluation scale 0-5) (ducksalad [17]) | H: Italian ryegrass, herbicidal effect (evaluation scale 0-5) (Italian ryegrass [18]) | A: barnyardgrass, herbicidal effect (evaluation scale 0-5) (barnyardgrass [19]) | other results
1 | CC1(C(F)(F)F)CC(=O)N(Cc2ccccc2NS(=O)(=O)C(F)(F)F)CO1 (stereo not drawn) [II-46] | 0 (mortality of less than 5% (almost ineffective)) | 4 (mortality of at least 70% and less than 90%) | 3 (mortality of at least 40% and less than 70%) | 1 (mortality of at least 5% and less than 20%) | 0 (mortality of less than 5% (almost ineffective)) | 4 (mortality of at least 70% and less than 90%) | 2 (mortality of at least 20% and less than 40%) | 2 (mortality of at least 20% and less than 40%) | 4 (mortality of at least 70% and less than 90%) | 4 (mortality of at least 70% and less than 90%) | 2 (mortality of at least 20% and less than 40%) | 4 (mortality of at least 70% and less than 90%) | 4 (mortality of at least 70% and less than 90%) | 5 (mortality of 90% or above (nearly complete death)) | 5 (mortality of 90% or above (nearly complete death)) | 4 (mortality of at least 70% and less than 90%) | 5 (mortality of 90% or above (nearly complete death)) | 5 (mortality of 90% or above (nearly complete death)) | 3 (mortality of at least 40% and less than 70%) | 5 (mortality of 90% or above (nearly complete death)) | J: common ragweed, herbicidal effect (evaluation scale 0-5) (common ragweed [20]): 4 (mortality of at least 70% and less than 90%); I: velvetleaf, herbicidal effect (evaluation scale 0-5) (velvetleaf [21]): 3 (mortality of at least 40% and less than 70%); K: redroot pigweed, herbicidal effect (evaluation scale 0-5) (redroot pigweed [22]): 0 (mortality of less than 5% (almost ineffective)); N: common chickweed, herbicidal effect (evaluation scale 0-5) (common chickweed [23]): 4 (mortality of at least 70% and less than 90%); G: water foxtail, herbicidal effect (evaluation scale 0-5) (water foxtail [24]): 5 (mortality of 90% or above (nearly complete death)); L: common lambsquater, herbicidal effect (evaluation scale 0-5) (common lambsquater [25]): 4 (mortality of at least 70% and less than 90%); E: giant foxtail, herbicidal effect (evaluation scale 0-5) (giant foxtail [26]): 5 (mortality of 90% or above (nearly complete death)); M: posumbu knotweed, herbicidal effect (evaluation scale 0-5) (posumbu knotweed [27]): 3 (mortality of at least 40% and less than 70%); D: large crabgrass, herbicidal effect (evaluation scale 0-5) (large crabgrass [28]): 5 (mortality of 90% or above (nearly complete death)); a: transplanted rice, effect on crop (evaluation scale 0-5) (transplanted rice): 0 (mortality of less than 5% (almost ineffective))
2 | CCOC(=O)N(c1ccccc1CN1COC(C)(C(F)(F)F)CC1=O)S(=O)(=O)C(F)(F)F (stereo not drawn) [II-49] | 0 (mortality of less than 5% (almost ineffective)) | 4 (mortality of at least 70% and less than 90%) | 3 (mortality of at least 40% and less than 70%) | 0 (mortality of less than 5% (almost ineffective)) | 0 (mortality of less than 5% (almost ineffective)) | 3 (mortality of at least 40% and less than 70%) | 3 (mortality of at least 40% and less than 70%) | 3 (mortality of at least 40% and less than 70%) | 4 (mortality of at least 70% and less than 90%) | 3 (mortality of at least 40% and less than 70%) | 3 (mortality of at least 40% and less than 70%) | 0 (mortality of less than 5% (almost ineffective)) | 5 (mortality of 90% or above (nearly complete death)) | 5 (mortality of 90% or above (nearly complete death)) | 5 (mortality of 90% or above (nearly complete death)) | 5 (mortality of 90% or above (nearly complete death)) | 5 (mortality of 90% or above (nearly complete death)) | 5 (mortality of 90% or above (nearly complete death)) | 3 (mortality of at least 40% and less than 70%) | 3 (mortality of at least 40% and less than 70%) | J: common ragweed, herbicidal effect (evaluation scale 0-5) (common ragweed [20]): 4 (mortality of at least 70% and less than 90%); I: velvetleaf, herbicidal effect (evaluation scale 0-5) (velvetleaf [21]): 0 (mortality of less than 5% (almost ineffective)); K: redroot pigweed, herbicidal effect (evaluation scale 0-5) (redroot pigweed [22]): 0 (mortality of less than 5% (almost ineffective)); N: common chickweed, herbicidal effect (evaluation scale 0-5) (common chickweed [23]): 4 (mortality of at least 70% and less than 90%); G: water foxtail, herbicidal effect (evaluation scale 0-5) (water foxtail [24]): 5 (mortality of 90% or above (nearly complete death)); L: common lambsquater, herbicidal effect (evaluation scale 0-5) (common lambsquater [25]): 2 (mortality of at least 20% and less than 40%); E: giant foxtail, herbicidal effect (evaluation scale 0-5) (giant foxtail [26]): 3 (mortality of at least 40% and less than 70%); M: posumbu knotweed, herbicidal effect (evaluation scale 0-5) (posumbu knotweed [27]): 4 (mortality of at least 70% and less than 90%); D: large crabgrass, herbicidal effect (evaluation scale 0-5) (large crabgrass [28]): 3 (mortality of at least 40% and less than 70%); a: transplanted rice, effect on crop (evaluation scale 0-5) (transplanted rice): 0 (mortality of less than 5% (almost ineffective))
